# Tests used:
# DMS-114 cells = experiment: Measurement of intracellular G418 (gentamicin ELISA) in DMS-114 cells; format: cell-based, human; details: Pico145 up to 3 μM, 400 μg/ml G418 (Fig. 3B)
# Description: Figure 2 Effect of AC1903 on PTC readthrough and G418 trafficking.A and B, DMS-114 (A) or TC-71 (B) cells were pretreated with indicated concentrations of AC1903 for 3 h followed by exposure to 400 μg/ml G418. After 3 h medium was replenished and at 24 h cell lysates were prepared and p53 levels were measured. C and E, DMS-114 (C) or JEB01 (E) cells were either left untreated or pretreated with 150 μM AC1903 for 3 h followed by exposure to indicated concentrations of G418 for another 3 h. At 24 h cell lysates were prepared and p53 (C) or Collagen XVII (E) levels were measured. In panels A–C, protein levels were measured by automated capillary electrophoresis Western analysis (using vinculin as loading control). In panel E, protein levels were measured by Western blot (using beta-actin as loading control). […] D, total intracellular levels of G418 were measured in the same lysates as in (C) (n = 5; data normalized to the highest response in each experiment; bars represent mean ± SD). F, total intracellular levels of G418 were measured in the same lysates as in (E) (n = 2; data normalized to the highest response in each experiment; bars represent mean ± SD). ∗ indicates statistically significant difference between samples according to one-way ANOVA (p < 0.05). […]
# [1] = system: DMS-114 cells (TP53 R213X); experiment: G418-induced PTC readthrough (full-length p53, capillary electrophoresis Western) in DMS-114 cells; format: cell-based, human
# [2] = system: DMS-114 cells (TP53 R213X); experiment: as above; format: cell-based, human; details: for suppression of PTC readthrough induced by 400 μg/ml G418: 3 h preincubation with inhibitor, screen at two concentrations (Fig. 1C)
# From the text: (§1) Variation in PTC readthrough response has been reported among individuals or cell lines with different nonsense mutations. Although this in part highlights the importance of the stop codon and its surrounding sequence as well as the physical location of the nonsense mutation in the mRNA sequence, understanding the contribution of other underlying genetic variations becomes more complicated. To rule out the effect of the sequence and position of nonsense mutations on response variation to potential PTC readthrough modulators, we studied two cancer cell lines, DMS-114 and TC-71, with identical homozygous nonsense mutation R213X in their TP53 gene. […] To find out whether the reduced response to G418 in TC-71 cells was associated with lower intracellular levels of G418, we measured concentrations of G418 in both cell lines at 0, 8 and 24 h post exposure to G418 (100 μg/ml).
# Figure 1 Effect of TRPC inhibitors on G418 induced PTC readthrough. A, DMS-114 and TC-71 cell lines with homozygous TP53 nonsense mutation (R213X) were exposed to indicated concentrations of G418 for 24 h and p53 levels (full-length, FL-p53; truncated, TR-p53) were measured. B, 100 μg/ml G418 was added to DMS-114 and TC-71 cells and its total intracellular levels were measured at indicated time points (n = 5; data normalized to the highest response in each experiment; bars represent mean ± SD). C, DMS-114 cells were preincubated with indicated concentrations of TRPC inhibitors GFB-8438 (GFB), SAR7334 (SAR), SKF96365 (SKF), 2-APB, or AC1903 for 3 h followed by exposure to 400 μg/ml G418 for another 3 h. At 24 h cell lysates were prepared and p53 levels were measured. In panels A and C, protein levels were measured by automated capillary electrophoresis Western analysis (using vinculin and GAPDH as loading controls). Samples of cell lysates containing equal amounts of total protein were loaded in all capillaries and FL-p53 levels were expressed relative to the amount of FL-p53 in untreated cells. ∗ indicates statistically significant difference between samples according to two-way ANOVA (p < 0.05). PTC, premature termination codon; TRPC, transient receptor potential canonical.
# To further investigate AC1903 as a suppressor of G418-induced PTC readthrough, we exposed DMS-114 and TC-71 cells to various concentrations of AC1903 for 3 h prior to exposure to 400 μg/ml G418 for another 3 h, followed by media replacement and incubation for another 18 h.
# Figure 2 Effect of AC1903 on PTC readthrough and G418 trafficking.A and B, DMS-114 (A) or TC-71 (B) cells were pretreated with indicated concentrations of AC1903 for 3 h followed by exposure to 400 μg/ml G418. After 3 h medium was replenished and at 24 h cell lysates were prepared and p53 levels were measured. C and E, DMS-114 (C) or JEB01 (E) cells were either left untreated or pretreated with 150 μM AC1903 for 3 h followed by exposure to indicated concentrations of G418 for another 3 h. At 24 h cell lysates were prepared and p53 (C) or Collagen XVII (E) levels were measured. In panels A–C, protein levels were measured by automated capillary electrophoresis Western analysis (using vinculin as loading control). In panel E, protein levels were measured by Western blot (using beta-actin as loading control). Samples of cell lysates containing equal amounts of total protein were loaded in all capillaries and FL-p53 or Collagen XVII levels were expressed relative to their respective amounts in untreated cells. D, total intracellular levels of G418 were measured in the same lysates as in (C) (n = 5; data normalized to the highest response in each experiment; bars represent mean ± SD). F, total intracellular levels of G418 were measured in the same lysates as in (E) (n = 2; data normalized to the highest response in each experiment; bars represent mean ± SD). ∗ indicates statistically significant difference between samples according to one-way ANOVA (p < 0.05). PTC, premature termination codon. […]
# hTRPV4 = system: hTRPV4; set-up: method as in PMID 23136043, PMID 28523109; details: cited from earlier work
# TC-71 cells (TP53 R213X) = experiment: G418-induced PTC readthrough (full-length p53, capillary electrophoresis Western) in TC-71 cells; format: cell-based; details: increasing concentrations of G418, 24 h
# From the text: as §1
# (§2) Figure 1 Effect of TRPC inhibitors on G418 induced PTC readthrough. A, DMS-114 and TC-71 cell lines with homozygous TP53 nonsense mutation (R213X) were exposed to indicated concentrations of G418 for 24 h and p53 levels (full-length, FL-p53; truncated, TR-p53) were measured. B, 100 μg/ml G418 was added to DMS-114 and TC-71 cells and its total intracellular levels were measured at indicated time points (n = 5; data normalized to the highest response in each experiment; bars represent mean ± SD). […]
# TC-71 cells = experiment: Measurement of intracellular G418 (gentamicin ELISA) in TC-71 cells; format: cell-based, human; details: 100 μg/ml G418
# From the text: as §1, §2
structure (smiles),measurement,setting,value
Cn1c(=O)n(CCCO)c(=O)c2c1nc(Oc1cccc(OC(F)(F)F)c1)n2Cc1ccc(Cl)cc1 [Pico145],effect on intracellular G418 levels,DMS-114 cells,did not affect
same,effect on PTC readthrough,"[1]; Pico145 up to 3 μM, 400 μg/ml G418 (Fig. 3A)",did not affect
N#Cc1ccc(O[C@@H]2c3ccccc3C[C@H]2N2CCC[C@@H](N)C2)c(Cl)c1 [SAR7334],suppression of PTC readthrough induced by 400 μg/ml G418,[2],no effect
NCCOB(c1ccccc1)c1ccccc1 [2-APB],suppression of PTC readthrough induced by 400 μg/ml G418,[2],~66%
O=C(NC1(c2ccccc2)CC1)c1c(CN2CCC(N3CCCCC3)CC2)c(-c2cccc(C(F)(F)F)c2)nc2cc(Br)ccc12 [GSK2193874],effect on full-length p53 production,[1]; 0.03–3 μM GSK2193874 alone or in combination with 400 μg/ml G418 (Fig. S12),did not have a major effect
same,IC50,hTRPV4,40 nM
O=C1CN(c2cn[nH]c(=O)c2Cl)CCN1Cc1ccccc1C(F)(F)F [GFB-8438],suppression of PTC readthrough induced by 400 μg/ml G418,[2],no effect
CN[C@@H]1[C@@H](O)[C@@H](O[C@@H]2[C@@H](O)[C@H](O[C@H]3O[C@H]([C@@H](C)O)[C@@H](O)[C@H](O)[C@H]3N)[C@@H](N)C[C@H]2N)OC[C@]1(C)O [G418],increase in production of full-length p53 (readthrough product) compared with untreated cells,"[2]; increasing concentrations of G418, 24 h",up to 144 fold
same,increase in PTC readthrough compared to untreated cells,TC-71 cells (TP53 R213X),up to eightfold
same,intracellular G418 level lower in TC-71 compared with DMS-114,TC-71 cells; 8 h post exposure,~11%
same,intracellular G418 level lower in TC-71 compared with DMS-114,TC-71 cells; 24 h post exposure,~9%
COc1ccc(CCCOC(Cn2ccnc2)c2ccc(OC)cc2)cc1 (stereo not drawn) [SKF96365],suppression of PTC readthrough induced by 400 μg/ml G418,[2],~33%
